From patent US11666561B2, “Compounds for use in regulating follicle maturation” (AARHUS UNIVERSITET, priority 2017, dated 2023)
One block for each compound: values may come before it.

System: primordial-to-primary follicle transition
Assay: In vitro organ culture of mouse ovaries with compound, H&E histology and counting of primordial, primary and secondary follicles
Settings: for effect on primordial-to-primary follicle transition / primordial follicle activation: in vitro cultured mouse ovaries, concentration not given; for effect on follicle distribution: 96 hours
Procedure: Ovaries obtained from mice were washed twice with culture medium. Antagonists or agonists to be tested were dissolved in suitable solvents and added to the medium. As a control medium comprising solvent without the antagonist or agonist was used. One of the ovaries was cultured in a control medium and another was cultured with the antagonist or agonist. The tested antagonists or agonists and their concentrations are outlined in table 2.
Ovaries were incubated with antagonist at 37° C. and 5% CO2 for 24 and 96 hours, respectively (see table 3).
Cultures ovaries were fixed, embedded in paraffin and sliced microscopy. The sectioned ovaries were stained with hematoxylin and eosin (H&E) to visualize the morphology of the ovary by microscopy.
The number of primordial, primary and secondary follicles was determined, and it was determined whether the antagonist or agonist was capable of regulating folliculogenesis.
C57BL/6j×CBA F1 hybrid mice (Janvier Labs, France) were housed and bred in the animal facilities at Department of Biomedicine, Aarhus University. Animals were housed in a 12:12 h controlled light-dark environment and were provided with food and water ad libitum. 7-day-old female pups were used for the study.
Pups were sacrificed and ovaries were excised. Using a stereomicroscope MZ75 (Leica Microsystems, Germany), excess tissue was removed. During the dissection, ovaries were kept at 37° C. in culture medium: aMEM (Thermo Fisher) supplemented with 10% FBS (Thermo Fisher), 100 mIU/mL of FSH (Sigma-Aldrich), 100 IU/mL penicillin (Thermo Fisher), 100 μg/mL streptomycin (Thermo Fisher) and 1% Insulin-Transferrin-Selenium (Thermo Fisher). Isolated ovaries were transferred into well inserts (PET membrane ThinCert, 0.4 μm-pore size; Greiner bio-one) in 24-well plates (Tissue culture treated, cell culture plates; Costar). 200-300 μL of culture medium was added to the well below the insert and up to two ovaries were placed on the membrane of each insert. The culture medium was supplemented with different concentrations of the tested compounds; bpV(HOpic) (Sigma-Aldrich), Temsirolimus (Sigma-Aldrich), Ketotifen (Sigma-Aldrich), 3PO (Sigma-Aldrich), Dorsomorphin (Sigma-Aldrich), AICAR (Sigma-Aldrich), NCG (Sigma-Aldrich), and Dyphylline (Cayman Chemical). Up to six wells in the 24-well plate were used for inserts. Sterile dH2O was added to the rest of the wells to ensure humidity and reduce evaporation. The ovaries were cultured at 37° C., 5% CO2 for four days. 150 μL of medium was replaced every other day with fresh culture medium.
Ovaries kept in organ culture for four days were fixed for 24 hours in 4% paraformaldehyde solution at 4° C. After fixation, ovaries were dehydrated in ethanol series using 70%, 96% and 99.9% ethanol. Xylene was used as clearing agent before the ovaries were infiltrated in paraffin wax. 5 μm-sections of samples in paraffin were cut using a microtome (Cut 6062, SLEE medical, Germany). Paraffin sections were mounted on glass slides, paraffin was melted at 60° C., and the samples were stained with hematoxylin and eosin (using standard protocols).
The samples were deparaffinized by incubating in xylene for 2×15 min. and subsequently rehydrated in series of ethanol; 3×2 min. in 99.9% ethanol, 2 min. in 96% ethanol, and 2 min. in 70% ethanol. The samples were then rinsed in dH2O, stained in hematoxylin for 40 sec., rinsed in dH2O for 5 min., and stained in eosin for 46 sec. The samples were dehydrated in ethanol: 2×2 min. in 96% ethanol, 2×2 min in 99.9% ethanol, and finally cleared up in xylene for at least 30 min before mounting the samples using Eukitt mounting medium (Sigma-Aldrich) and cover glass.
The number of follicles at each developmental stage was counted using an inverted research microscope (DM14000B, Leica Microsystems, Germany). The follicles of every 3rd to 4th section of each ovary were counted and the distribution of follicles in the different stages in percentage was determined.

[1] = Table 1, effect with a figure cited
[2] = Table 2, effect with a figure cited
[3] = 30 μM 3PO, ovaries cultured four days, only healthy follicles counted

Compound: CN(C)C(=N)N=C(N)N [Metformin, N,N-Dimethylimiddicarbonimiddiamid]
Effect (Table 1, marked (ongoing)): promotes | Effect (Table 2, marked (ongoing)): promotes

Compound: CC(=O)CCCCn1c(=O)c2c(ncn2C)n(C)c1=O [Pentoxifylline, 3,7-dimethyl-1-(5-oxohexyl)purine-2,6-dione]
Effect (Table 1, marked (ongoing)): promotes | Effect (Table 2, marked (ongoing)): promotes

Compound: CCOc1cc2ncc(C#N)c(Nc3ccc(OCc4ccccn4)c(Cl)c3)c2cc1NC(=O)/C=C/CN(C)C [AVE1642, (E)-N-[4-[3-chloro-4-(pyridin-2-ylmethoxy)anilino]-3-cyano-7-ethoxyquinolin-6-yl]-4-(dimethylamino)but-2-enamide]
Effect (Table 1, marked (ongoing)): promotes | Effect (Table 2, marked (ongoing)): promotes

Compound: CC(C)[C@@H](CS(=O)(=O)C(C)C)N1C(=O)[C@@](C)(CC(=O)O)C[C@H](c2cccc(Cl)c2)[C@H]1c1ccc(Cl)cc1 [AMG-232, 2-[(3R,5R,6S)-5-(3-chlorophenyl)-6-(4-chlorophenyl)-3-methyl-1-[(2S)-3-methyl-1-propan-2-ylsulfonylbutan-2-yl]-2-oxopiperidin-3-yl]acetic acid]
Effect (Table 1, marked (ongoing)): promotes | Effect (Table 2, marked (ongoing)): promotes

Compound: PDGF-AA: peptide, expressed in E coli, SEQ ID NO: 1, binds and activates PDGFRA
Effect (Table 1, marked (ongoing)): promotes | Effect (Table 2, marked (ongoing)): promotes

Compound: CC(C)c1cc(CNc2nc(Nc3cc(C4CC4)[nH]n3)cc(N3CCN(C)CC3)n2)on1 [XL228, 4-N-(5-cyclopropyl-1H-pyrazol-3-yl)-6-(4-methylpiperazin-1-yl)-2-N-[(3-propan-2-yl-1,2-oxazol-5-yl)methyl]pyrimidine-2,4-diamine]
Effect (Table 1, marked (ongoing)): promotes | Effect (Table 2, marked (ongoing)): promotes

Compound: COc1ccc(Cl)c(Nc2nc3ccccc3nc2NS(=O)(=O)c2cccc(NC(=O)C(C)(C)N)c2)c1 [XI147, 2-amino-N-[3-({3-[(2-chloro-5-methoxyphenyl)amino]quinoxalin-2-yl}sulfamoyl)phenyl]-2-m]
Effect (Table 1, marked (ongoing)): promotes | Effect (Table 2, marked (ongoing)): promotes

Compound: O=C(O)c1cc(N(Cc2ccccc2O)Cc2cc(O)ccc2O)ccc1O [Lavendustin, 5-amino-((N-2,5-dihydroxybenzyl)-N′-2-hydroxybenzyl)aminosalicylic acid]
Effect (Table 1, marked (ongoing)): promotes | Effect (Table 2, marked (ongoing)): promotes

Compound: Nc1cc(C(F)(F)F)c(-c2cc(N3CCOCC3)nc(N3CCOCC3)n2)cn1 [Buparlisib, 5-(2,6-dimorpholinopyrimidin-4-yl)-4-(trifluoromethyl)pyridin-2-amine]
Effect (Table 1, marked (ongoing)): promotes | Effect (Table 2, marked (ongoing)): promotes

Compound: CO[C@H]1C[C@@H]2CC[C@@H](C)[C@@](O)(O2)C(=O)C(=O)N2CCCC[C@H]2C(=O)O[C@H]([C@H](C)C[C@@H]2CC[C@@H](OC(=O)C(C)(CO)CO)[C@H](OC)C2)CC(=O)[C@H](C)/C=C(\C)[C@@H](O)[C@@H](OC)C(=O)[C@H](C)C[C@H](C)/C=C/C=C/C=C/1C [Temsirolimus]
effect on primordial-to-primary follicle transition / primordial follicle activation: decrease the rate of primordial-to-primary transition

Compound: NC(=O)N[C@@H](CCC(=O)O)C(=O)O [NCG, (2S)-2-(carbamoylamino)pentanedioic acid]
effect on follicle distribution (10, 20 and 30 μM NCG): has the potential to activate primordial follicle distribution | Effect [1]: promotesfollicle | Effect [2]: promotesfollicle

Compound: C=CC(=O)N1CCC(Oc2cc3c(Nc4ccc(Cl)c(Cl)c4F)ncnc3cc2OC)CC1 [Poziotinib, 1-[4-[4-(3,4-dichloro-2-fluoroanilino)-7-methoxyquinazolin-6-yl]oxypiperidin-1-yl]prop-2-en-1-one]
Effect (Table 1, marked (ongoing)): promotes | Effect (Table 2, marked (ongoing)): promotes

Compound: CN(c1ncccc1CNc1nc(Nc2ccc3c(c2)CC(=O)N3)ncc1C(F)(F)F)S(C)(=O)=O [PF-562271, N-methyl-N-[3-[[[2-[(2-oxo-1,3-dihydroindol-5-yl)amino]-5-(trifluoromethyl)pyrimidin-4-yl]amino]methyl]pyridin-2-yl]methanesulfonamide]
Effect (Table 1, marked (ongoing)): promotes | Effect (Table 2, marked (ongoing)): promotes

Compound: c1ccc2c(CCNc3ccc(Nc4ccncc4)cc3)c[nH]c2c1 [Serdemetan, 1-N-[2-(1H-indol-3-yl)ethyl]-4-N-pyridin-4-ylbenzene-1,4-diamine]
Effect (Table 1, marked (ongoing)): promotes | Effect (Table 2, marked (ongoing)): promotes

Compound: CCN1[C@@H](C(=O)NC23CCC(C(=O)O)(CC2)CC3)[C@H](c2cccc(Cl)c2F)[C@]2(C(=O)Nc3cc(Cl)ccc32)C12CCCCC2 [APG-115]
Effect (Table 1, marked (ongoing)): promotes | Effect (Table 2, marked (ongoing)): promotes

health of follicles in treated ovaries (3PO treated ovaries): several of the follicles seemed atretic
Compound: O=C(C=Cc1cccnc1)c1ccncc1 [3PO, 3-(3-pyridinyl)-1-(4-pyridinyl)-2-propen-1-one]
primary follicles [3]: 26.60±11.24% | primordial follicles [3]: 63.11±8.83% | secondary follicles [3]: 11.58±9.07% | Effect [1]: promotes | Effect [2]: promotes | effect on primordial-to-primary follicle transition / primordial follicle activation: promote primordial-to-primary transition

Compound: CNC(=O)c1cc(Oc2ccc(NC(=O)Nc3ccc(Cl)c(C(F)(F)F)c3)cc2)ccn1 [BIIB022, 4-[4-[[4-chloro-3-(trifluoromethyl)phenyl]carbamoylamino]phenoxy]-N-methyl-pyridine-2-carboxamide]
Effect (Table 1, marked (ongoing)): promotes | Effect (Table 2, marked (ongoing)): promotes

Compound: Cc1nccc2[nH]c(=O)ccc12 [Medorinone, 5-methyl-1H-1,6-naphthyridin-2-one]
Effect (Table 1, marked (ongoing)): promotes | Effect (Table 2, marked (ongoing)): promotes

Compound: Nc1ccn([C@@H]2O[C@H](CO)[C@@H](O)[C@@H]2O)c(=O)n1 [MK-8242, 4-amino-1-[(2R,3S,4S,5R)-3,4-dihydroxy-5-(hydroxymethyl)oxolan-2-yl]pyrimidin-2-one]
Effect (Table 1, marked (ongoing)): promotes | Effect (Table 2, marked (ongoing)): promotes

Compound: Cn1c(=O)c2c(ncn2CC(O)CO)n(C)c1=O (stereo not shown) [Dyphylline, 7-(2,3-dihydroxypropyl)-1,3-dimethylpurine-2,6-dione]
effect on follicle distribution (10 and 100 μM Dyphylline, number too small for statistics): has the potential to activate primordial follicle distribution | Effect [1]: Promotes | Effect [2]: Promotes | effect on primordial-to-primary follicle transition / primordial follicle activation: activation of primordial follicles

Compound: Cc1c(NC(=O)OC[C@@H]2COCCN2)cn2ncnc(Nc3ccc4c(cnn4Cc4cccc(F)c4)c3)c12 [BMS-599626, [(3S)-morpholin-3-yl]methyl N-[4-[[1-[(3-fluorophenyl)methyl]indazol-5-yl]amino]-5-methylpyrrolo[2,1-f][1,2,4]triazin-6-yl]carbamate]
Effect (Table 1, marked (ongoing)): promotes | Effect (Table 2, marked (ongoing)): promotes

Compound: C=CC(=O)Nc1cc(Nc2nccc(-c3cn(C)c4ccccc34)n2)c(OC)cc1N(C)CCN(C)C [Osimertinib, N-[2-[2-(dimethylamino)ethyl-methylamino]-4-methoxy-5-[[4-(1-methylindol-3-yl)pyrimidin-2-yl]amino]phenyl]prop-2-enamide]
Effect (Table 1, marked (ongoing)): promotes | Effect (Table 2, marked (ongoing)): promotes

Compound: COc1ncc(-c2nc3c(n2C(C)C)[C@H](c2ccc(Cl)cc2)N(c2cc(Cl)cn(C)c2=O)C3=O)c(OC)n1 [HDM201, (6S)-5-(5-chloro-1,2-dihydro-1-methyl-2-oxo-3-pyridinyl)-6-(4-chlorophenyl)-2-(2,4-dimethoxy-5-pyrimidinyl)-5,6-dihydro-1-(1-methylethyl)-Pyrrolo[3,4-d]imidazol-4(1H)-one]
Effect (Table 1, marked (ongoing)): promotes | Effect (Table 2, marked (ongoing)): promotes

Compound: Cc1cn(-c2cc(NC(=O)c3ccc(C)c(Nc4nccc(-c5cccnc5)n4)c3)cc(C(F)(F)F)c2)cn1 [Pirotinib, 4-methyl-N-[3-(4-methylimidazol-1-yl)-5-(trifluoromethyl)phenyl]-3-[(4-pyridin-3-ylpyrimidin-2-yl)amino]benzamide]
Effect (Table 1, marked (ongoing)): promotes | Effect (Table 2, marked (ongoing)): promotes
